Experimental data reported in US5854010A, “Bioassay for detecting 2,3,7,8-tetrachlorodibenzo-para-dioxin and TCDD-like compounds and novel recombinant cell line useful therefor” (priority 1997, dated 1998).

Key:
H1L1.1 cells = test: Dose response of luciferase induction, 24 h (FIGS. 3-6, Table 3); format: cell-based, mouse; settings: for EC50 / Emax: Mus musculus; for Emax / Induction of luciferase activity: mono-ortho-PCBs, FIG. 4; for Emax: vs 1 nM TCDD, read-out: Luciferase induction as % of that observed with TCDD; for Maximal luciferase expression / Relative inducing potency versus TCDD: fused-ring PAHs, FIG. 6
Procedure: The graph of FIG. 3 illustrates the dose dependence of luciferase induction in the mouse H1L1.1 cells measured following […] of the cells to increasing concentrations of TCDD or other toxic compounds (which others are discussed in more detail below).
More particularly, the stable cell clones for the mouse H1L1.1 cells (about 90% confluent) were plated into six-well microplates (purchased from Corning) and incubated for 24 hours with the indicated concentration of the particular toxin solubilized in DMSO. Then, the cells were lysed with 100 μl of lysis buffer and luciferase activity was determined as described above. Values represent the mean ± the standard evaluation of at least triplicate determinations.
As set out in Table 3, the responsiveness and sensitivity of the mouse H1L1.1 cells was compared to the responsiveness and sensitivity of certain other published PCDH cell bioassay systems. The other systems were a recombinant HepG2 (101L) cell line that induces firefly luciferase (see, Postlind et al., supra), a recombinant Hepa1 (T13) cell line that induces PAP activity (see El-Fouly et al., supra), and a rat H4IIE cell line that induces EROD activity (see, Kennedy et al., supra). The ED50 values were calculated by probit analysis of the dose-response data.
As set out in the graphs of FIGS. 3-6, since one use of the stably transfected mouse H1L1.1 cell lines is for detection and relative quantitative analysis of TCDD and various dioxin-like compounds (i.e., AhR ligands), the ability of various compounds besides TCDD to induce luciferase activity in the mouse H1L1.1 cells was examined. The experiments performed to determine the dose-response curves for the toxins other than TCDD set out in the graphs of FIGS. 3-6 were performed in essentially the same manner as the experiments described above to determine the dose response curve of TCDD set out in the graph of FIG. 3.
Specifically, with respect to the data illustrated in the graph of FIG. 3, cells were incubated with increasing concentrations of test chemical and luciferase activity determined after 24 hours.
It should be noted that the low numerical values of luciferase activity from induction by various PCBs reported in FIGS. 4 and 5, compared to the values reported in the other figures, are not due to actual low levels of luciferase induction, but to the fact that the detection of luminescence in these experiments was performed using a different instrument from that used in the other experiments.
However, the relative magnitude of luciferase induction by the mono-ortho-PCBs (FIG. 4) and the AROCLORS (FIG. 5) was established by directly comparing the resulting activity to that produced by a maximally inducing dose of TCDD (1 nM solubilized in DMSO) measured in the same instrument.

mouse AhR = test: Competitive inhibition of TCDD binding to AhR
rat AhR = test: Competitive inhibition of TCDD binding to AhR
guinea pig AhR = test: Competitive inhibition of TCDD binding to AhR
rat H4L1.1c4 cells = test: Antagonism of TCDD luciferase induction by 2,2',5,5'-TCB (FIG. 7); format: cell-based; settings: 24 h
Procedure: (§1) The bar graph of FIG. 7 illustrates that 2,2',5,5'-TCB antagonizes induction of luciferase activity by TCDD in a species-specific manner, and thus, 2,2',5,5'-TCB is not a TCDD-like compound as defined herein. In particular, six-well plates containing the indicated cell lines were incubated with DMSO (control), with TCDD (5 nM), with 2,2',5,5'-TCB (25 μM), or with both TCDD (5 nM) and 2,2',5,5'-TCB (25 μM) for 24 hours. Luciferase activity in cell lysates was determined as described above. Values represent the mean ± the standard evaluation of at least triplicate determinations.

human HG2L1.1c3 cells = test: as above; format: cell-based; settings: 24 h
Procedure: as §1

mouse H1L1.1 cells = test: as above; format: cell-based
Procedure: as §1

[1] = system: guinea pig G16L1.1c8 cells; test: as above; format: cell-based; settings: 24 h
Procedure: as §1

Clc1ccc(-c2ccc(Cl)c(Cl)c2)cc1Cl [3,3',4,4'-TCB, 3,3',4,4'-tetrachlorobiphenyl]
Level of luciferase induction relative to TCDD (H1L1.1 cells; 24 h, FIG. 3): comparable maximal levels
EC50 (H1L1.1 cells; 24 h, FIG. 3): 100 nM

Clc1ccc(-c2cc(Cl)c(Cl)c(Cl)c2)cc1Cl [3,3',4,4',5-PCB, 3,3',4,4',5-pentachlorobiphenyl]
Level of luciferase induction relative to TCDD (H1L1.1 cells; 24 h, FIG. 3): comparable maximal levels
EC50 (H1L1.1 cells; 24 h, FIG. 3): 2 nM

Clc1cc2oc3cc(Cl)c(Cl)cc3c2cc1Cl [2,3,7,8-TCDF, 2,3,7,8-tetrachlorodibenzofuran]
Level of luciferase induction relative to TCDD (H1L1.1 cells; 24 h, FIG. 3): comparable levels
EC50 (H1L1.1 cells; 24 h, FIG. 3): ~0.05 nM

Clc1ccc(Cl)c(-c2cc(Cl)ccc2Cl)c1 [2,2',5,5'-TCB, 2,2',5,5'-tetrachlorobiphenyl]
Competitive inhibition of TCDD binding (mouse AhR): competitively to inhibit TCDD binding
Competitive inhibition of TCDD binding (rat AhR): competitively to inhibit TCDD binding
Competitive inhibition of TCDD binding (guinea pig AhR): but not to the guinea pig and human AhRs
Effect of 2,2',5,5'-TCB alone on luciferase activity (rat H4L1.1c4 cells; 25 μM): no significant effect
Reduction of TCDD luciferase induction (rat H4L1.1c4 cells; TCB 25 μM + TCDD 5 nM): 47%
Effect of 2,2',5,5'-TCB alone on luciferase activity (human HG2L1.1c3 cells; 25 μM): no significant effect
Effect of 2,2',5,5'-TCB on TCDD luciferase induction (human HG2L1.1c3 cells; TCB 25 μM + TCDD 5 nM): not affected
Effect of 2,2',5,5'-TCB alone on luciferase activity (mouse H1L1.1 cells; 25 μM, 24 h): no significant effect
Luminescence response of H1L1.1 cells (mouse H1L1.1 cells; 2,2',5,5'-TCB alone, in words): will not cause the novel mouse H1L1.1 cell line to respond with luminescence
Reduction of TCDD luciferase induction (mouse H1L1.1 cells; TCB 25 μM + TCDD 5 nM, 24 h): 86%
Antagonism when added with TCDD (mouse H1L1.1 cells; in words): acts as an antagonist
Effect of 2,2',5,5'-TCB alone on luciferase activity ([1]; 25 μM): no significant effect
Effect of 2,2',5,5'-TCB on TCDD luciferase induction ([1]; TCB 25 μM + TCDD 5 nM): not affected

Clc1ccc(-c2cc(Cl)c(Cl)c(Cl)c2Cl)cc1Cl [2,3,3',4,4',5-HCB, 2,3,3',4,4',5-hexachlorobiphenyl]
Emax (H1L1.1 cells; 24 h): 20 to 30%
Induction of luciferase activity (H1L1.1 cells; 24 h): 10 fold

Clc1cc2c(cc1Cl)Oc1c(Cl)c(Cl)cc(Cl)c1O2 [1,2,4,7,8-PCDD, 1,2,4,7,8-pentachlorodibenzo-p-dioxin]
Luciferase activation (H1L1.1 cells; up to 10 μM, 24 h, FIG. 3): no luciferase activation

Clc1cc2oc3c(Cl)c(Cl)c(Cl)cc3c2cc1Cl [2,3,4,7,8-PCDF, 2,3,4,7,8-pentachlorodibenzofuran]
Level of luciferase induction relative to TCDD (H1L1.1 cells; 24 h, FIG. 3): comparable levels
EC50 (H1L1.1 cells; 24 h, FIG. 3): ~2 nM

O=c1cc(-c2ccccc2)oc2ccc3ccccc3c12 [BNF, β-naphthoflavone]
Maximal luciferase expression (H1L1.1 cells): maximal luciferase expression was not reached
Relative inducing potency versus TCDD (H1L1.1 cells): substantially less potent than TCDD

Cc1ccc2cc3c(ccc4ccccc43)c3c2c1CC3 [3-MC, 3-methylcholanthrene]
Maximal luciferase expression (H1L1.1 cells): maximal luciferase expression was not reached
Relative inducing potency versus TCDD (H1L1.1 cells): substantially less potent than TCDD

Clc1ccc(-c2cc(Cl)c(Cl)c(Cl)c2Cl)cc1 [2,3,4,4',5-PCB, 2,3,4,4',5-pentachlorobiphenyl]
Emax (H1L1.1 cells; 24 h): 20 to 30%
Induction of luciferase activity (H1L1.1 cells; 24 h): 10 fold

c1ccc2cc3c(ccc4ccccc43)cc2c1 [BA, benz[a]anthracene]
Maximal luciferase expression (H1L1.1 cells): maximal luciferase expression was not reached
Relative inducing potency versus TCDD (H1L1.1 cells): substantially less potent than TCDD
